This note sets out measurements from US20220388962A1 (Biohaven Therapeutics Ltd., priority 2019, published 2022).

Each structure is given as a SMILES string. Counter-ions that a name gives are not always drawn.

TDP-43, sequence (Q13148 whole entry): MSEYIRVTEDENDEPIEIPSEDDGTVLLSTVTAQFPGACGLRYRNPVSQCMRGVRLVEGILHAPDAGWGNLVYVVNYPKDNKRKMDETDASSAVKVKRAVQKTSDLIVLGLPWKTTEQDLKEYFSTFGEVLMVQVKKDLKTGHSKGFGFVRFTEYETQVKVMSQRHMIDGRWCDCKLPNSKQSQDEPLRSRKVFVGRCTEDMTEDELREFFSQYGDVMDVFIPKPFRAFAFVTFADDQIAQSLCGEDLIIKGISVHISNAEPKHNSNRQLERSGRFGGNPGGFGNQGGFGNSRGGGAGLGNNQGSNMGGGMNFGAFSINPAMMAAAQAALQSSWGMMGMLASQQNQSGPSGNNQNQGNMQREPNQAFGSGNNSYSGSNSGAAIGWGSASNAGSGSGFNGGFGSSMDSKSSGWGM

The target of the first experiment is TDP-43 (Homo sapiens, UniProt Q13148). The experiment can be described thus: TDP-43-DNA alpha-screen assay (bt-TAR-32 displacement). The format is binding. The note with it: bt-TAR-32 0.125 nM, 15 ng/ml TDP-43. As for the experimental part:
Alpha-screen assay: Displacement of bt-TG6 binding was measured using AlphaScreen technology as previously described (Cassel, J. A. et al., Journal of Biomolecular Screening, 2010, 15, 1099-1106; Cassel, J. A.; Reitz, A. B. et al. The effects of small molecule inhibitors of nucleic acid binding to TDP-43 on TDP-43 metabolism and function. Biochimie, 2012, 94, 1974-1981).
Test compounds were diluted in assay buffer (25 mM Tris [pH 7.4], 0.1% bovine serum albumin [BSA], 0.1% Triton X-100) at 4× the desired final concentration. Dilutions of test compound (50 to 0.02 μM in half-log dilutions with a no compound control well) were pre-incubated with TDP-43 (5 μl of 60 ng/mL) pre-bound to AlphaScreen® anti-GST acceptor beads (5 μl of 40 μg/mL) in 15 μl volume for 30 minutes at 23° C. with shaking. Assays were initiated by the addition of 5 μl bt-TAR-32 (5′-CTGCTTTTTGCCTGTACTGGGTCTCTGTGGTT-3′) 0.5 nM pre-bound to AlphaScreen® strepavidin donor beads (40 μg/mL). After incubation in the dark at 23° C. for 90 minutes with shaking, the AlphaScreen® signal was measured on a Synergy 2 plate reader (BioTek, Winooski, Vt.). IC50 values were determined from nonlinear regression fits of the data to a Sigmoidal dose response variable slope model in GraphPad Prism. Final assay conditions are 25 mM Tris [pH 7.4], 0.1% bovine serum albumin [BSA], 0.100 Triton X-100, 15 ng/ml TDP-43, 0.125 nM bTAR32, 10 ug/ml […].
For `COc1ccc(-c2cc(NCCCN(C)CCCN(C)C)c3ccccc3n2)cc1` [Example 1, N^1-(3-((2-(4-Methoxyphenyl)quinolin-4-yl)amino)propyl)-N^1,N^3,N^3-trimethyl propane-1,3-diamine], the IC50 worked out at 280 nM.

For `CNCCCN(C)CCCNc1cc(-c2ccc(OC)cc2)nc2ccccc12` [Example 2, 2-(4-Methoxyphenyl)-N-(3-{methyl[3-(methylamino)propyl]-amino}propyl) quinolin-4-amine], the IC50 is 110 nM.

Regarding `COc1ccc(-c2cc(NCCCN(C)CCCN)c3ccccc3n2)cc1` [Example 3, N^1-(3-Aminopropyl)-N^3-(2-(4-methoxyphenyl)quinolin-4-yl)-N^1-methylpropane-1,3-diamine], the IC50 amounted to 80 nM.

As for `COc1ccc(-c2cc(NCCCNCCCN3CCCCC3)c3ccccc3n2)cc1` [Example 4, N^1-(2-(4-Methoxyphenyl)quinolin-4-yl)-N^3-(3-(piperidin-1-yl)propyl) propane-1,3-diamine trihydrochloride], the IC50 came to 220 nM.

Take `COc1ccc(-c2cc(NCCCN(C)CCCN3CCCCC3)c3ccccc3n2)cc1` [Example 5, N^1-(2-(4-methoxyphenyl)quinolin-4-yl)-N^3-methyl-N^3-(3-(piperidin-1-yl)propyl)propane-1,3-diamine trihydrochloride]: the IC50 amounted to 240 nM.

Turning to `COc1ccc(-c2cc(NCCCNCCCNC(=O)OC(C)(C)C)c3ccccc3n2)cc1` [Example 6, tert-Butyl N-{3-[(3-{[2-(4-methoxyphenyl)quinolin-4yl]amino}propyl)amino]propyl}carbamate], the IC50 came to 760 nM.

Turning to `COc1ccc(-c2cc(NCCCN(C)CCCN)c3c(F)cccc3n2)cc1` [Example 7, N^1-(3-aminopropyl)-N^3-(5-fluoro-2-(4-methoxyphenyl)quinolin-4-yl)-N^1-methyl propane-1,3-diamine], the IC50 was determined as 220 nM.

`COc1ccc(-c2cc(NCCCNCCCN)c3ccccc3n2)cc1` [Example 8, N-{3-[(3-Aminopropyl)amino]propyl}-2-(4-methoxyphenyl)quinolin-4-amine trihydrochloride]: the IC50 worked out at 80 nM.

As to `COc1ccc(-c2cc(NCCCN(C)CCCN)c3cc(OC)ccc3n2)cc1` [Example 9, N^1-(3-Aminopropyl)-N^3-(6-methoxy-2-(4-methoxyphenyl)quinolin-4-yl)-N^1-methylpropane-1,3-diamine], the IC50 was 50 nM.

`COc1ccc(-c2cc(NCCCN(C)CCCN)c3ccccc3n2)c(C)c1` [Example 10, N^1-(3-Aminopropyl)-N^3-(2-(2-methyl-4-methoxyphenyl)quinolin-4-yl)-N^1-methylpropane-1,3-diamine]: the IC50 came to 650 nM.

Turning to `CNCCCCN(C)CCCNc1cc(-c2ccc(OC)cc2)nc2ccccc12` [Example 12, N^1-(3-((2-(4-Methoxyphenyl)quinolin-4-yl)amino)propyl)-N^1,N^4-dimethyl butane-1,4-diamine trihydrochloride], the IC50 was 80 nM.

On to `COc1ccc(-c2cc(NCCCN(C)CCCN(C)CCF)c3ccccc3n2)cc1` [Example 13, N^1-(2-fluoroethyl)-N^3-(3-((2-(4-methoxyphenyl)quinolin-4-yl)amino)propyl)-N^1,N^3-dimethylpropane-1,3-diamine], for which the IC50 is 330 nM.

For the compound `COc1ccc(-c2cc(NCCCNCCCO)c3ccccc3n2)cc1` [Example 14, 3-((3-((2-(4-Methoxyphenyl)quinolin-4-yl)amino)propyl)amino)-propan-1-ol], the IC50 came to 900 nM.

As to `COCCCNCCCNc1cc(-c2ccc(OC)cc2)nc2ccccc12` [Example 15, N-(3-(3-methoxypropylamino)propyl)-2-(4-methoxyphenyl)quinolin-4-amine], the IC50 worked out at 800 nM.

Turning to `COc1ccc(-c2cc(NCCCN(CCCN)C(C)=O)c3ccccc3n2)cc1` [Example 16, N-(3-(2-(4-Methoxyphenyl)quinolin-4-ylamino)propyl)-N-(3-aminopropyl) acetamide], the IC50 worked out at 1420 nM.

In the case of `COc1ccc(-c2cc(NCCCN(CCCN(C)C)CC3CC3)c3ccccc3n2)cc1` [Example 17, N^1-(Cyclopropylmethyl)-N^1-(3-((2-(4-methoxyphenyl)quinolin-4-yl)amino)propyl)-N^3,N^3-dimethylpropane-1,3-diamine], the IC50 was determined as 180 nM.

Turning to `COc1ccc(-c2cc(NCCCN(CCCN(C)C)CC3CN(C(=O)OC(C)(C)C)C3)c3ccccc3n2)cc1` [Example 18, tert-Butyl 3-(((3-(dimethylamino)propyl)(3-((2-(4-methoxyphenyl)quinolin-4-yl)amino)propyl)amino)methyl)azetidine-1-carboxylate], the IC50 came to 1410 nM.

Take `COc1ccc(-c2cc(NCCCN(CCCN(C)C)CC3CCN(C(=O)OC(C)(C)C)CC3)c3ccccc3n2)cc1` [Example 19, tert-Butyl 4-(((3-(dimethylamino)propyl)(3-((2-(4-methoxyphenyl)quinolin-4-yl)amino)propyl)amino)methyl)piperidine-1-carboxylate]: the IC50 came to 950 nM.

On to `COc1ccc(-c2cc(NCCCN(CCCN(C)C)CC3CNC3)c3ccccc3n2)cc1` [Example 20, N^1-(Azetidin-3-ylmethyl)-N^1-(3-((2-(4-methoxyphenyl)quinolin-4-yl)amino)propyl)-N^3,N^3-dimethylpropane-1,3-diamine], for which the IC50 was determined as 130 nM.

Turning to `COc1ccc(-c2cc(NCCCN(CCCN(C)C)CC3CCNCC3)c3ccccc3n2)cc1` [Example 21, N^1-(3-((2-(4-Methoxyphenyl)quinolin-4-yl)amino)propyl)-N^3,N^3-dimethyl-N^1-(piperidin-4-ylmethyl)propane-1,3-diamine], the IC50 stood at 120 nM.

With `COc1ccc(-c2cc(NCCCNCc3cncn3C)c3ccccc3n2)cc1` [Example 22, N^1-(2-(4-Methoxyphenyl)quinolin-4-yl)-N^3-((1-methyl-1H-imidazol-5-yl)methyl)propane-1,3-diamine], the concentration for half-maximal inhibition (IC50) was 680 nM.

Turning to `COc1ccc(-c2cc(NCCCN3CC4CNCC4C3)c3ccccc3n2)cc1` (stereo not drawn) [Example 23, N-(3-(Hexahydropyrrolo[3,4-c]pyrrol-2(1H)-yl)propyl)-2-(4-methoxyphenyl) quinolin-4-amine], the IC50 was 240 nM.

On to `COc1ccc(-c2cc(NCCCN(C)Cc3ccc(N)nc3)c3ccccc3n2)cc1` [Example 24, N^1-((6-Aminopyridin-3-yl)methyl)-N^3-(2-(4-methoxyphenyl)-quinolin-4-yl)-N^1-methylpropane-1,3-diamine], for which the IC50 was 1110 nM.

For the compound `COc1ccc(-c2cc(NCCCN(C)CC(O)CN(C)C)c3ccccc3n2)cc1` (stereo not drawn) [Example 25, 1-(Dimethylamino)-3-((3-((2-(4-methoxyphenyl)quinolin-4-yl)-amino)propyl)(methyl)amino)propan-2-ol], the IC50 turned out to be 220 nM.

For the compound `COc1ccc(-c2cc(NCCCN(C)CCCN3CCC(O)CC3)c3ccccc3n2)cc1` [Example 26, 1-(3-((3-((2-(4-Methoxyphenyl)quinolin-4-yl)amino)propyl)-methylamino)propyl) piperidin-4-ol], the IC50 was 150 nM.

As to `COc1ccc(-c2cc(NCCCN3CC4CN(C(=O)OC(C)(C)C)CC4C3)c3ccccc3n2)cc1` (stereo not drawn) [Example 27, tert-butyl 5-(3-((2-(4-methoxyphenyl)quinolin-4-yl)amino)propyl)hexahydro-pyrrolo[3,4-c]pyrrole-2(1H)-carboxylate], the IC50 is 2080 nM.

Consider `COc1ccc(-c2cc(NCCCN(C)Cc3ccc(N(C)C)nc3)c3ccccc3n2)cc1` [Example 28, N^1-((6-(dimethylamino)pyridin-3-yl)methyl)-N^3-(2-(4-methoxyphenyl)quinolin-4-yl)-N^1-methylpropane-1,3-diamine], for which the IC50 came to 1210 nM.

For `CN(CCCN)CCCNc1cc(-c2ccc(N3CCNCC3)cc2)nc2ccccc12` [Example 29, N^1-(3-aminopropyl)-N^1-methyl-N^3-(2-(4-(piperazin-1-yl)phenyl)quinolin-4-yl)propane-1,3-diamine], the IC50 came out at 80 nM.

Turning to `COc1ccc(-c2cc(NCCCN(C)CC3CCN(C)CC3)c3ccccc3n2)cc1` [Example 30, N^1-(2-(4-methoxyphenyl)quinolin-4-yl)-N^3-methyl-N^3-((1-methylpiperidin-4-yl)methyl)propane-1,3-diamine], the IC50 turned out to be 350 nM.

Turning to `COc1ccc(-c2cc(NCCCN(C)CCC3CCCCN3)c3ccccc3n2)cc1` (stereo not drawn) [Example 31, N^1-(2-(4-methoxyphenyl)quinolin-4-yl)-N^3-methyl-N^3-(2-(piperidin-2-yl)ethyl)propane-1,3-diamine], the half-maximal inhibitory concentration (IC50) was found to be 350 nM.

For the compound `COc1ccc(-c2cc(NCCCNC3CCC4CNCC43)c3ccccc3n2)cc1` (stereo not drawn) [Example 33, N^1-(2-(4-Methoxyphenyl)quinolin-4-yl)-N^3-(octahydrocyclopenta[c]pyrrol-4-yl)propane-1,3-diamine dihydrochloride], the IC50 was 180 nM.

Still in this experiment, the particulars now being: side-by-side, three independent assays, bt-TAR32; average.
On to `COc1ccc(-c2cc(NCCCN(C)CCCN)c3ccccc3n2)cc1` [Example 3, N^1-(3-Aminopropyl)-N^3-(2-(4-methoxyphenyl)quinolin-4-yl)-N^1-methylpropane-1,3-diamine], for which the “increase in potency versus (XXVIII), average” value is given as 14 ×.

Staying with this experiment, now noted: side-by-side, three independent assays, bt-TAR32; range.
For the compound `COc1ccc(-c2cc(NCCCN(C)CCCN)c3ccccc3n2)cc1` [Example 3, N^1-(3-Aminopropyl)-N^3-(2-(4-methoxyphenyl)quinolin-4-yl)-N^1-methylpropane-1,3-diamine], the “increase in potency versus (XXVIII)” value is given as 11-18 ×.
